Measured values reported in ChEMBL document CHEMBL1126545, “Metabolism and biological activity of 1,25(OH)2D2 and its metabolites in a chronic myelogenous leukemia cell line, rwleu-4” (Bioorg Med Chem Lett, 1993).

What was measured:
RWLeu4 [1] = assay: Change in cell surface marker (CD4) along monocyte-macrophage pathway on RWLeu-4 cells; value represents the percentage of total cells positive for CD4 marker; type: functional, Homo sapiens
RWLeu4 [2] = assay: Concentration required to decrease [3H]thymidine incorporation by 50 percent in RWLeu4 CML cell line as compared to untreated cells was determined; type: functional, cell-based; settings: Homo sapiens
RWLeu4 [3] = assay: Change in cell surface marker (CD11b) along monocyte-macrophage pathway on RWLeu-4 cells; value represents the percentage of total cells positive for CD11b marker; type: functional, Homo sapiens

Row | SMILES | Cells positive (RWLeu4 [1]) [%] | IC50 (RWLeu4 [2]) [nM] | Cells positive (RWLeu4 [3]) [%]
1 | C=C1/C(=C\C=C2/CCC[C@@]3(C)C2CC[C@@H]3[C@H](C)/C=C/C(C)C(C)(O)CO)C[C@@H](O)C[C@@H]1O (stereo partly specified) | 21 | 8 | 89
2 | C=C1/C(=C\C=C2/CCC[C@]3(C)[C@@H]([C@H](C)/C=C/C(O)(CO)C(C)(C)O)CC[C@@H]23)C[C@@H](O)C[C@@H]1O (stereo partly specified) |  | > 100 | 
3 | C=C1/C(=C\C=C2/CCC[C@@]3(C)C2CC[C@@H]3[C@H](C)/C=C/C(C)(O)C(C)(O)CO)C[C@@H](O)C[C@@H]1O (stereo partly specified) |  | 11 | 
4 | C=C1/C(=C\C=C2/CCC[C@]3(C)[C@@H]([C@H](C)CC[C@@H](O)C(C)(C)O)CC[C@@H]23)C[C@@H](O)C[C@@H]1O |  | 11 | 
5 | C=C1/C(=C\C=C2/CCC[C@]3(C)[C@@H]([C@H](C)/C=C/C(C)C(C)(C)O)CC[C@@H]23)C[C@@H](O)C[C@@H]1O (stereo partly specified) | 15 | 13 | 88
6 | C=C1/C(=C\C=C2/CCC[C@@]3(C)C2CC[C@@H]3[C@H](C)/C=C/C(C)(O)C(C)(C)O)C[C@@H](O)C[C@@H]1O (stereo partly specified) |  | 11 | 
7 | C=C1/C(=C\C=C2/CCC[C@]3(C)[C@@H]([C@H](C)/C=C/C(CO)C(C)(C)O)CC[C@@H]23)C[C@@H](O)C[C@@H]1O (stereo partly specified) |  | 96 | 
